{"source": "the RepoRT retention time repository"}
{"assay": "HILIC, Waters ACQUITY UPLC BEH Amide, 100 × 2.1 mm, 1.7 µm; A: water + 0.125% formic acid + 10 mM ammonium formate; B: 5% water + 95% acetonitrile + 0.125% formic acid + 10 mM ammonium formate; gradient (min/%B) 0/100 2/100 7.7/70 9.5/40 10.25/30 12.75/100 17/100", "details": "stereoisomer not certain", "units": {"LC retention time": "min"}}
{"smiles": "COc1ccc2nc(S(=O)Cc3ncc(C)c(OC)c3C)[nH]c2c1", "note": "(stereo not drawn) [Omeprazole]", "LC retention time": 1.35}
{"smiles": "Nc1nc2ccc(Cl)cc2c2nc(-c3ccco3)nn12", "LC retention time": 1.07}
{"smiles": "CC(=O)OCCc1ccccc1", "note": "[Phenethylacetate]", "LC retention time": 1.02}
{"smiles": "NC(N)=NCCCC(=O)O", "note": "[4-Guanidinobutyric acid]", "LC retention time": 7.72}
{"smiles": "CS(=O)CCC(N)C(=O)O", "note": "(stereo not drawn) [Methioninesulfoxide]", "LC retention time": 8.62}
{"smiles": "COc1ccc2[nH]cc(CCNC(C)=O)c2c1", "note": "[Melatonin]", "LC retention time": 1.24}
{"smiles": "CCNC(C)Cc1cccc(C(F)(F)F)c1", "note": "(stereo not drawn) [Fenfluramine]", "LC retention time": 2.33}
{"smiles": "O=c1ccn(C2CCC(CO)O2)c(=O)[nH]1", "note": "(stereo not drawn) [2,3-Dideoxyuridine]", "LC retention time": 1.73}
{"smiles": "COC1C=COC2(C)Oc3c(C)c(O)c4c(O)c(c5c(c4c3C2=O)=NC2(CCN(CC(C)C)CC2)N=5)NC(=O)C(C)=CC=CC(C)C(O)C(C)C(O)C(C)C(OC(C)=O)C1C", "note": "(stereo not drawn) [Rifabutin]", "LC retention time": 2.76}
{"smiles": "CNCC(=O)O", "note": "[Sarcosine]", "LC retention time": 7.82}
{"smiles": "CC(Cc1ccccc1)(NC(=O)CN)c1ccccc1", "note": "(stereo not drawn) [Remacemide]", "LC retention time": 4.41}
{"smiles": "Cn1c(N)nc2c(ncn2C2OC(CO)C(O)C2O)c1=O", "note": "(stereo not drawn) [1-Methylguanosine]", "LC retention time": 5.84}
{"smiles": "NC(=O)OCCCc1ccccc1", "note": "[Phenprobamate]", "LC retention time": 1.01}
{"smiles": "Br.CN1CCC2(c3cccc(O)c3)Cc3nc4ccccc4cc3CC2C1.O", "note": "(stereo not drawn)", "LC retention time": 5.11}
{"smiles": "O=C(O)CNC(=O)c1cccnc1", "note": "[Nicotinoylglycine]", "LC retention time": 7.08}
{"smiles": "CC12CCC3c4ccc(O)cc4CCC3C1CCC2=O", "note": "(stereo not drawn) [1,3,5(10)-Estratrien-3-ol-17-one]", "LC retention time": 1.01}
{"smiles": "CSCCC(N)C(=O)O", "note": "(stereo not drawn) [Methionine]", "LC retention time": 7.37}
{"smiles": "NC(=O)OCC(COC(N)=O)c1ccccc1", "note": "[Felbamate]", "LC retention time": 1.2}
{"smiles": "Cn1c(=O)c2c([nH]c(=O)n2C)n(C)c1=O", "note": "[1,3,7-Trimethyluric acid]", "LC retention time": 1.83}
{"smiles": "c1ccc2c(c1)Cc1ccccc1-2", "note": "[Fluorene]", "LC retention time": 6.66}
{"smiles": "NC1C(O)OC(CO)C(O)C1O", "note": "(stereo not drawn) [Galactosamine]", "LC retention time": 8.44}
{"smiles": "COc1c2ccoc2cc2oc(=O)ccc12", "note": "[5-Methoxypsoralen]", "LC retention time": 1.07}
{"smiles": "C[N+](C)(C)CCCC(=O)O", "note": "[4-Trimethylammoniobutanoic acid]", "LC retention time": 7.66}
{"smiles": "O=C1N(c2ccccc2)c2ccccc2C1(Cc1ccncc1)Cc1ccncc1", "note": "[Linopirdine]", "LC retention time": 1.17}
{"smiles": "COc1ccc2c3c1OC1CC(O)C=CC31CCN(C)C2", "note": "(stereo not drawn) [Galanthamine]", "LC retention time": 4.62}
{"smiles": "O=CNC1CCCCC1", "note": "[N-Cyclohexylformamide]", "LC retention time": 1.2}
{"smiles": "Nc1nc(Cl)nc2c1ncn2C1OC(CO)C(O)C1O", "note": "(stereo not drawn) [2-Chloroadenosine]", "LC retention time": 2.69}
{"smiles": "COc1c(N2CC3CCCNC3C2)c(F)cc2c(=O)c(C(=O)O)cn(C3CC3)c12", "note": "(stereo not drawn) [Moxifloxacin]", "LC retention time": 4.69}
{"smiles": "Nc1ccn(C2CC(O)C(COP(=O)(O)O)O2)c(=O)n1", "note": "(stereo not drawn) [2-Deoxycytidine-5-monophosphoric acid]", "LC retention time": 9.16}
{"smiles": "O=c1c(-c2ccc(O)cc2)coc2cc(O)ccc12", "note": "[Daidzein]", "LC retention time": 1.39}
{"smiles": "CC1OC(OC2C(Oc3cc(O)c4c(c3)OC(c3ccc(O)cc3)CC4=O)OC(CO)C(O)C2O)C(O)C(O)C1O", "note": "(stereo not drawn) [Naringin]", "LC retention time": 5.61}
{"smiles": "O=c1ccc2cccc(O)c2[nH]1", "note": "[2,8-Quinolinediol]", "LC retention time": 1.53}
{"smiles": "CCC(COC(=O)c1cc(OC)c(OC)c(OC)c1)(c1ccccc1)N(C)C", "note": "(stereo not drawn) [Trimebutine]", "LC retention time": 1.47}
{"smiles": "CNCC(O)c1ccc(O)cc1", "note": "(stereo not drawn) [Synephrine]", "LC retention time": 5.67}
{"smiles": "CCC1(O)CC2CN(CCc3c([nH]c4ccccc34)C(C(=O)OC)(c3cc4c(cc3OC)N(C)C3C(O)(C(N)=O)C(O)C5(CC)C=CCN6CCC43C65)C2)C1", "note": "(stereo not drawn) [Vindesine]", "LC retention time": 5.76}
{"smiles": "CCOc1cc(N)c(Cl)cc1C(=O)NCC1CN(Cc2ccc(F)cc2)CCO1", "note": "(stereo not drawn) [Mosapride]", "LC retention time": 1.24}
{"smiles": "CS(=O)(=O)c1ccc(C2=C(c3ccccc3)C(=O)OC2)cc1", "note": "[Rofecoxib]", "LC retention time": 0.97}
{"smiles": "O=C(O)c1c[nH]c2ccccc12", "note": "[Indole-3-carboxylic acid]", "LC retention time": 1.41}
{"smiles": "NCCc1ccccn1", "note": "[2-(2-Aminoethyl)pyridine]", "LC retention time": 5.52}
{"smiles": "C#CCN(C)C(C)Cc1ccccc1", "note": "(stereo not drawn) [Selegiline]", "LC retention time": 1.5}
{"smiles": "O=C(O)C(O)Cc1c[nH]c2ccccc12", "note": "(stereo not drawn) [Indolelactic acid]", "LC retention time": 2.25}
{"smiles": "COc1ccc(C(CN(C)C)C2(O)CCCCC2)cc1", "note": "(stereo not drawn) [Venlafaxine]", "LC retention time": 2.44}
{"smiles": "CC(=O)NC(CCCN=C(N)N)C(=O)O", "note": "[N-.alpha.-Acetyl-L-arginine]", "LC retention time": 8.16}
{"smiles": "COc1cc(-c2[o+]c3cc(O)cc(O)c3cc2OC2OC(CO)C(O)C(O)C2O)cc(O)c1O", "note": "(stereo not drawn) [Petunidin-3-glucoside]", "LC retention time": 4.47}
{"smiles": "NC(N)=NCCCC(N)C(=O)NC(CO)C(=O)O", "note": "(stereo not drawn) [Arg-Ser]", "LC retention time": 9.9}
{"smiles": "CC(C)C(C)C=CC(C)C1CCC2C3=CC=C4CC(O)CCC4(C)C3CCC21C", "note": "(stereo not drawn) [Ergosterol]", "LC retention time": 1.43}
{"smiles": "CCOC(=O)N1CCC(=C2c3ccc(Cl)cc3CCc3cccnc32)CC1", "note": "[Loratadine]", "LC retention time": 1.11}
{"smiles": "NC(=O)NC(NC(N)=O)C(=O)O", "note": "[Allantoic acid]", "LC retention time": 8.56}
{"smiles": "OCCOCCN1CCN(C2=Nc3ccccc3Sc3ccccc32)CC1", "note": "[Quetiapine]", "LC retention time": 2.54}
{"smiles": "COc1ccccc1OCCNCC(O)COc1cccc2[nH]c3ccccc3c12", "note": "(stereo not drawn) [Carvedilol]", "LC retention time": 3.17}
{"smiles": "CCC(C)C(NC)C(=O)O", "note": "(stereo not drawn) [N-Methylisoleucine]", "LC retention time": 6.44}
{"smiles": "O=C(C=Cc1ccccc1O)c1ccccc1", "note": "[2-Hydroxychalcone]", "LC retention time": 1.01}
{"smiles": "COc1cc(N)c(Cl)cc1C(=O)NC1CN2CCC1CC2", "note": "(stereo not drawn) [Zacopride]", "LC retention time": 4.66}
{"smiles": "CCCCCC(=O)O", "note": "[Hexanoic acid]", "LC retention time": 4.89}
{"smiles": "CN1CCc2cc(Cl)c(O)cc2C(c2ccccc2)C1", "note": "(stereo not drawn) [UNII-UGT5535REQ]", "LC retention time": 2.89}
{"smiles": "O=C(O)C=Cc1cnc[nH]1", "note": "[Urocanic acid]", "LC retention time": 3.69}
{"smiles": "CN(CC(=O)O)C(=N)N", "note": "[Creatine]", "LC retention time": 8.15}
{"smiles": "NC(CCC(=O)O)C(=O)O", "note": "(stereo not drawn) [Glutamic acid]", "LC retention time": 8.85}
{"smiles": "CCCCCC=CCC=CCC=CCC=CCCCC(=O)Nc1ccc(O)cc1", "note": "[AM 404]", "LC retention time": 0.97}
{"smiles": "CC(Oc1c(Cl)cccc1Cl)C1=NCCN1", "note": "(stereo not drawn) [Lofexidine]", "LC retention time": 2.65}
{"smiles": "CC(C)C1CCC(C(=O)NC(Cc2ccccc2)C(=O)O)CC1", "note": "(stereo not drawn) [Nateglinide]", "LC retention time": 1.3}
{"smiles": "CN(Cc1cnc2nc(N)nc(N)c2n1)c1ccc(C(=O)NC(CCC(=O)O)C(=O)O)cc1", "note": "(stereo not drawn) [Methotrexate]", "LC retention time": 7.67}
{"smiles": "O=Cc1c[nH]c2ccccc12", "note": "[Indole-3-carboxaldehyde]", "LC retention time": 1.16}
{"smiles": "CC(C)(CO)C(O)C(=O)NCCC(=O)O", "note": "(stereo not drawn) [Pantothenic acid]", "LC retention time": 3.5}
{"smiles": "NCCCCC(N)C(=O)O", "note": "(stereo not drawn) [Lysine]", "LC retention time": 9.54}
{"smiles": "NC(Cc1ccc(OP(=O)(O)O)cc1)C(=O)O", "note": "(stereo not drawn) [Phosphotyrosine]", "LC retention time": 9.72}
{"smiles": "NCCc1ccc(O)cc1", "note": "[Tyramine]", "LC retention time": 5.58}
{"smiles": "CCC(=O)NCC(=O)O", "note": "[2-Propanamidoacetic acid]", "LC retention time": 5.37}
